Experimental findings from article PMC7472185 (Viruses, 2020) are described below.

The target of one data set is HBV RT (Hepatitis B virus genotype C subtype adr, UniProt P12933). Description: T/P and substrate binding assay (cell-free), poly(rA)/oligo(dT) with DIG-dUTP. Particulars: for Inhibitory effect on T/P and substrate binding activity of HBV RT: poly(rA)/oligo(dT); for inhibition at 10 µM / inhibition at 100 µM: read-out: % Inhibition to HBV RT of cell-free assay.
For data set [1], the system named is HBeAg. The data set can be described thus: HBeAg ELISA of supernatant, HBV infection system NTCP/G2. It is filed as cell-based, Hepatitis B virus. Particulars: NTCP/G2, day 9. On the technique in general: In an ELISA, binding on a coated surface is turned into a signal by an enzyme label.
Data set [2] has as its system HBeAg. Description: HBeAg ELISA of supernatant, HB611 cells. It is filed as cell-based, Hepatitis B virus. As to conditions: suramin, KB-R7943, compound 3 up to 50, 20, and 25 µM, respectively.
Data set [3] concerns HBV. Description: Intracellular core-associated HBV DNA by qPCR, HB611 cells. It is filed as cell-based, Hepatitis B virus. In general terms: Quantitative PCR measures a nucleic acid by following its amplification.
A further data set has as its system HBsAg. Description: HBsAg ELISA of supernatant, HB611 cells. Particulars: suramin, KB-R7943, compound 3 up to 50, 20, and 25 µM, respectively. The class given is cell-based, Hepatitis B virus.
The subject of data set [4] is NTCP-expressing HepG2 (NTCP/G2) cells. Description: Cytotoxicity, CellTiter-Glo, NTCP/G2 cells. The class given is cell-based. Particulars: day 9. For orientation: Cellular ATP, detected with luciferase, serves as a proxy for viable cell number.
The test system of data set [5] is HBV. Description: Intracellular core-associated HBV DNA by qPCR, NTCP/G2 infection system. It is filed as cell-based, Hepatitis B virus.
A further data set relates to HB611 cells. Description: Cytotoxicity, CellTiter-Glo, HB611 cells. The class given is cell-based, human.
Data set [6] concerns HBV. Description: microbe, parasite or virus in culture. It is filed as cell-based, Hepatitis B virus. As to conditions: HB611 cells, read-out: IC50 for extracellular HBV production.
The nature of data set [7]: Cytotoxicity, CellTiter-Glo, NTCP/G2 cells. The class given is cell-based. As to conditions: human, NTCP-expressing HepG2 (NTCP/G2) cells, day 9.
Data set [8] can be described thus: Cytotoxicity, CellTiter-Glo, HB611 cells. The class given is cell-based, human. Particulars: human; HB611 cells, day 9.
The test system of a further data set is HBV cccDNA. Description: cccDNA by qPCR (Hirt DNA), NTCP/G2 infection system. The class given is cell-based, Hepatitis B virus. As to conditions: NTCP/G2 cells.

Where two headings read alike, the source gives them in different places.

HBV RT, sequence (P12933 347-690): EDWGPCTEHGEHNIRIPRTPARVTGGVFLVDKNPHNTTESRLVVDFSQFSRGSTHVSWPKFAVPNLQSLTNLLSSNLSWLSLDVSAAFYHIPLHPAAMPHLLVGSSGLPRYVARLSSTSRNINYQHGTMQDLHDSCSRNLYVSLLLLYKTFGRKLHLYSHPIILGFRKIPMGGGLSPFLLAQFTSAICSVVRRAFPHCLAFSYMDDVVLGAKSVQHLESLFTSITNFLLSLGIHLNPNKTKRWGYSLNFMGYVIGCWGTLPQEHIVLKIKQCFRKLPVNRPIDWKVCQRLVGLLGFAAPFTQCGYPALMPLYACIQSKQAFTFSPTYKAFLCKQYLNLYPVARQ

For orientation: inhibition means the relative decrease from the control value, in per cent. With `Cc1cc2c(C(C)C)c(O)c(O)c(C=O)c2c(O)c1-c1c(C)cc2c(C(C)C)c(O)c(O)c(C=O)c2c1O` [Gossypol], on HBV RT (10 µM compound), the “Inhibitory effect on T/P and substrate binding activity of HBV RT” value is reported as “showed the higher inhibitory effects”; the inhibition at 10 µM was determined as 92%. For the same compound, at HBV RT (100 µM compound), the inhibition at 100 µM came out at 97%.
What is called CC50 is the concentration giving 50% cytotoxicity. What is called IC50 is the concentration that inhibits the measured activity by half. `N=C(N)SCCc1ccc(OCc2ccc([N+](=O)[O-])cc2)cc1` [KB-R7943]: in the data set with HBeAg [1], the “HBeAg expression in the culture supernatant” value is given as “did not change”. In addition, the “HBeAg secretion” value in the data set with HBeAg [2] is recorded as “no changes”. For the same compound, the “Inhibitory effect on T/P and substrate binding activity of HBV RT” value at HBV RT (10 µM compound) was “showed the higher inhibitory effects”. Further, the “Core-associated DNA” value with HBV [3] (HB611 cells) was “modest decrease”. Also, the “HBsAg secretion” value with HBsAg is “no changes”. The cytotoxic concentration (CC50) was found to be 37.4 µM in data set [4] and 41.9 µM with HB611 cells. The “putative IC50, core-associated HBV DNA” value with HBV [5] (NTCP/G2, day 9) is given as 7.37 µM. Moreover, the IC50 with HBV [6] is 3.7 µM.
As for `O=C(Nc1cccc(C(=O)Nc2ccc(S(=O)(=O)O)c3cc(S(=O)(=O)O)cc(S(=O)(=O)O)c23)c1)Nc1cccc(C(=O)Nc2ccc(S(=O)(=O)O)c3cc(S(=O)(=O)O)cc(S(=O)(=O)O)c23)c1` [NF023], the “% Inhibition to HBV RT of cell-free assay” value on HBV RT (10 µM compound) came out at 26%; on HBV RT (100 µM compound) it was 96%.
With `Nc1c(S(=O)(=O)O)cc(Nc2ccc(Nc3nc(Cl)nc(Nc4cccc(S(=O)(=O)O)c4)n3)c(S(=O)(=O)O)c2)c2c1C(=O)c1ccccc1C2=O` [Reactive blue 2], the inhibition at 10 µM on HBV RT (10 µM compound) is 53%. On HBV RT (100 µM compound), the inhibition at 100 µM worked out at 100%.
On to `CC(=O)c1c(O)c(C)c(O)c(Cc2c(O)c3c(c(C(=O)/C=C/c4ccccc4)c2O)OC(C)(C)C=C3)c1O` [Rottlerin], for which, on HBV RT, the inhibition at 10 µM is 35% and the inhibition at 100 µM worked out at 98%.
In the case of `Cc1ccc(C(=O)Nc2ccc(S(=O)(=O)O)c3cc(S(=O)(=O)O)cc(S(=O)(=O)O)c23)cc1NC(=O)c1cccc(NC(=O)Nc2cccc(C(=O)Nc3cc(C(=O)Nc4ccc(S(=O)(=O)O)c5cc(S(=O)(=O)O)cc(S(=O)(=O)O)c45)ccc3C)c2)c1` [Suramin], the “HBeAg expression in the culture supernatant” value in the data set with HBeAg [1] was “reduced”. The “HBeAg secretion” value in the data set on HBeAg [2] is listed as “no changes”. For the same compound, the “Inhibitory effect on T/P and substrate binding activity of HBV RT” value on HBV RT (10 µM compound) was “showed the higher inhibitory effects”. In addition, the inhibition at 10 µM on HBV RT (10 µM compound) is 69%. For the same compound, the inhibition at 100 µM at HBV RT (100 µM compound) stood at 97%. Moreover, the 50% inhibitory concentration (IC50) worked out at 26.4 µM with HBV [3] (Hepatitis B virus, HB611, read-out: IC50 for core-associated DNA); 0.27 µM in the data set on HBV [5] (Hepatitis B virus, 216 h, read-out: putative IC50, core-associated HBV DNA); 16.8 µM in the data set with HBV [6] (Hepatitis B virus). Besides, in the data set on HBsAg, the “HBsAg secretion” value is on record as “no changes”. The results for the CC50 at 9 days in [7] and in data set [8] were above 200 µM and 168 µM, respectively. Further, the “cccDNA levels” value with HBV cccDNA was “reduced”.
Take `C=CC1=C(C)c2cc3[nH]c(cc4nc(cc5[nH]c(cc1n2)c(C)c5CCC(=O)O)C(CCC(=O)O)=C4C)c(C)c3C=C` [protoporphyrin IX disodium]: the “Inhibitory effect on T/P and substrate binding activity of HBV RT” value on HBV RT (10 µM compound) is recorded as “showed the higher inhibitory effects”.
